Laboratory results taken from patent US10792289B2 (Horizon Orphan LLC, priority 2009, dated 2020).

Tested on: stable CF patients
Assay: Phase 2 study: pulmonary function (FEV1, FVC, FEF 25-75)
Assay type: in vivo, human
Design: FEF 25-75, Median / FEV1, Day 14, Mean / FEF 25-75, Mean: unit not given here; FEV1, Day 1, Mean / FEV1, Day 1, Median / FEV1, Day 14, Median / FEV1, Day 28, Mean / FEV1, Day 28, Median: unit: L
Settings: EE population
Experimental: The following dosage regimens (as nebulizer loaded doses) were evaluated: 120 mg QD (daily); 240 mg QD (daily); and 240 mg BID (twice daily).
Efficacy endpoints including clinical endpoints, pulmonary function tests, and additional microbiological parameters were assessed as change from Day 1 to subsequent visits where the endpoint data was collected. Time to need for intravenous/oral/inhaled anti-pseudomonal antimicrobials were assessed from Day 1 until final visit using survival analysis. The primary population for efficacy analysis was the EE population, but efficacy endpoints were also analyzed using the MITT population.
Changes in FEV1 (forced expiratory volume in 1 second), FVC (forced vital capacity) and FEF 25-75 (forced expiratory flow 25-75%) from Day 1 to all subsequent visits were determined for patients. Tables 26 and 27 summarize the results for FEV1 measurements in EE and MITT populations, respectively. FIGS. 7 and 8 show graphs of percent change in FEV1 (L) and percent change in FEV1(L) vs. placebo, respectively, at Day 28 for the EET population treated with placebo, 120 mg QD, 240 mg QD, or 240 mg BID. […] Tables 28 and 29 summarize the results for predicted FEVI measurements in EE and MITT populations, respectively. Tables 30 and 31 summarize results for FEF 25-75 measurements in EE and MITT populations, respectively.

[1] = Day 1 (baseline), combined 240 mg QD and BID
[2] = Day 14, combined 240 mg QD and BID

C[C@H]1COc2c(N3CCN(C)CC3)c(F)cc3c(=O)c(C(=O)O)cn1c23 [Levofloxacin, levofloxacin]
% predicted FEV1, Day 1, Mean (120 mg QD): 54.0 % predicted
% predicted FEV1, Day 1, Median (120 mg QD): 53.0 % predicted
% predicted FEV1, Day 14, Mean (120 mg QD): 54.7 % predicted
% predicted FEV1, Day 14, Median (120 mg QD): 53.0 % predicted
% predicted FEV1, Day 28, Mean (120 mg QD): 55.0 % predicted
% predicted FEV1, Day 28, Median (120 mg QD): 52.0 % predicted
FEF 25-75, Percent Change from Baseline to Day 14, Mean (120 mg QD): 0.41%
FEF 25-75, Percent Change from Baseline to Day 14, Median (120 mg QD): 0.45%
FEF 25-75, Percent Change from Baseline to Day 28, Mean (120 mg QD): 0.73%
FEF 25-75, Percent Change from Baseline to Day 28, Median (120 mg QD): 2.70%
FEV1, Day 1, Mean (120 mg QD): 1.99
FEV1, Day 1, Median (120 mg QD): 1.87
FEV1, Day 14, Mean (120 mg QD): 2.00
FEV1, Day 14, Median (120 mg QD): 1.82
FEV1, Day 28, Mean (120 mg QD): 2.03
FEV1, Day 28, Median (120 mg QD): 1.91
FEV1, Percent Change from Baseline to Day 14, Mean (120 mg QD): 1.13%
FEV1, Percent Change from Baseline to Day 14, Median (120 mg QD): 0.56%
FEV1, Percent Change from Baseline to Day 28, Mean (120 mg QD): 1.71%
FEV1, Percent Change from Baseline to Day 28, Median (120 mg QD): 1.06%
% predicted FEV1, Day 1, Mean (240 mg BID): 48.2 % predicted
% predicted FEV1, Day 1, Median (240 mg BID): 45.5 % predicted
% predicted FEV1, Day 14, Mean (240 mg BID): 51.7 % predicted
% predicted FEV1, Day 14, Median (240 mg BID): 49.5 % predicted
% predicted FEV1, Day 28, Mean (240 mg BID): 50.5 % predicted
% predicted FEV1, Day 28, Median (240 mg BID): 49.0 % predicted
FEF 25-75, Percent Change from Baseline to Day 14, Mean (240 mg BID): 16.99%
FEF 25-75, Percent Change from Baseline to Day 14, Median (240 mg BID): 11.66%
FEF 25-75, Percent Change from Baseline to Day 28, Mean (240 mg BID): 13.11%
FEF 25-75, Percent Change from Baseline to Day 28, Median (240 mg BID): 5.71%
FEV1, Day 1, Mean (240 mg BID): 1.86
FEV1, Day 1, Median (240 mg BID): 1.70
FEV1, Day 14, Mean (240 mg BID): 2.02
FEV1, Day 14, Median (240 mg BID): 1.88
FEV1, Day 28, Mean (240 mg BID): 1.90
FEV1, Percent Change from Baseline to Day 14, Mean (240 mg BID): 8.87%
FEV1, Percent Change from Baseline to Day 14, Median (240 mg BID): 7.51%
FEV1, Percent Change from Baseline to Day 28, Mean (240 mg BID): 5.05%
FEV1, Percent Change from Baseline to Day 28, Median (240 mg BID): 4.55%
% predicted FEV1, Day 1, Mean (240 mg QD): 55.9 % predicted
% predicted FEV1, Day 1, Median (240 mg QD): 56.0 % predicted
% predicted FEV1, Day 14, Mean (240 mg QD): 57.7 % predicted
% predicted FEV1, Day 14, Median (240 mg QD): 62.0 % predicted
% predicted FEV1, Day 28, Mean (240 mg QD): 57.3 % predicted
% predicted FEV1, Day 28, Median (240 mg QD): 58.0 % predicted
FEF 25-75, Percent Change from Baseline to Day 14, Mean (240 mg QD): 9.58%
FEF 25-75, Percent Change from Baseline to Day 14, Median (240 mg QD): 4.41%
FEF 25-75, Percent Change from Baseline to Day 28, Mean (240 mg QD): 4.70%
FEF 25-75, Percent Change from Baseline to Day 28, Median (240 mg QD): 5.77%
FEV1, Day 1, Mean (240 mg QD): 2.09
FEV1, Day 1, Median (240 mg QD): 2.02
FEV1, Day 14, Mean (240 mg QD): 2.16
FEV1, Day 14, Median (240 mg QD): 2.09
FEV1, Day 28, Mean (240 mg QD): 2.13
FEV1, Day 28, Median (240 mg QD): 2.15
FEV1, Percent Change from Baseline to Day 14, Mean (240 mg QD): 3.84%
FEV1, Percent Change from Baseline to Day 14, Median (240 mg QD): 1.92%
FEV1, Percent Change from Baseline to Day 28, Mean (240 mg QD): 2.51%
FEV1, Percent Change from Baseline to Day 28, Median (240 mg QD): 1.28%
% predicted FEV1, Day 1, Mean (Combined 240 mg QD and BID): 52.1 % predicted
% predicted FEV1, Day 1, Median (Combined 240 mg QD and BID): 51.0 % predicted
% predicted FEV1, Day 14, Mean (Combined 240 mg QD and BID): 54.7 % predicted
% predicted FEV1, Day 14, Median (Combined 240 mg QD and BID): 52.0 % predicted
% predicted FEV1, Day 28, Mean (Combined 240 mg QD and BID): 54.0 % predicted
% predicted FEV1, Day 28, Median (Combined 240 mg QD and BID): 54.0 % predicted
FEF 25-75, Percent Change from Baseline to Day 14, Mean (Combined 240 mg QD and BID): 13.23%
FEF 25-75, Percent Change from Baseline to Day 14, Median (Combined 240 mg QD and BID): 8.79%
FEF 25-75, Percent Change from Baseline to Day 28, Mean (Combined 240 mg QD and BID): 8.78%
FEF 25-75, Percent Change from Baseline to Day 28, Median (Combined 240 mg QD and BID): 5.74%
FEV1, Day 1, Mean (Combined 240 mg QD and BID): 1.98
FEV1, Day 1, Median (Combined 240 mg QD and BID): 1.81
FEV1, Day 14, Mean (Combined 240 mg QD and BID): 2.09
FEV1, Day 14, Median (Combined 240 mg QD and BID): 2.03
FEV1, Day 28, Mean (Combined 240 mg QD and BID): 2.02
FEV1, Day 28, Median (Combined 240 mg QD and BID): 1.98
FEV1, Percent Change from Baseline to Day 14, Mean (Combined 240 mg QD and BID): 6.32%
FEV1, Percent Change from Baseline to Day 14, Median (Combined 240 mg QD and BID): 3.94%
FEV1, Percent Change from Baseline to Day 28, Mean (Combined 240 mg QD and BID): 3.75%
FEV1, Percent Change from Baseline to Day 28, Median (Combined 240 mg QD and BID): 2.80%
FEF 25-75, Mean (Day 1 (baseline), 120 mg QD): 1.17
FEF 25-75, Median (Day 1 (baseline), 120 mg QD): 0.98
FEF 25-75, Mean (Day 1 (baseline), 240 mg BID): 0.85
FEF 25-75, Median (Day 1 (baseline), 240 mg BID): 0.68
FEF 25-75, Mean (Day 1 (baseline), 240 mg QD): 1.22
FEF 25-75, Median (Day 1 (baseline), 240 mg QD): 1.10
FEF 25-75, Mean [1]: 1.04
FEF 25-75, Median [1]: 0.83
FEF 25-75, Mean (Day 14, 120 mg QD): 1.18
FEF 25-75, Median (Day 14, 120 mg QD): 0.99
FEF 25-75, Mean (Day 14, 240 mg BID): 1.00
FEF 25-75, Median (Day 14, 240 mg BID): 0.78
FEF 25-75, Mean (Day 14, 240 mg QD): 1.33
FEF 25-75, Median (Day 14, 240 mg QD): 1.11
FEF 25-75, Mean [2]: 1.17
FEF 25-75, Median [2]: 0.92
FEF 25-75, Mean (Day 28, 120 mg QD): 1.23
FEF 25-75, Median (Day 28, 120 mg QD): 1.03
FEF 25-75, Mean (Day 28, 240 mg BID): 0.93
FEF 25-75, Median (Day 28, 240 mg BID): 0.78
FEF 25-75, Mean (Day 28, 240 mg QD): 1.27
FEF 25-75, Median (Day 28, 240 mg QD): 1.15
FEF 25-75, Mean (Day 28, combined 240 mg QD and BID): 1.10
